Test results taken from ChEMBL document CHEMBL4622858, “Synthesis of morpholine derivatives using the Castagnoli-Cushman reaction as BACE1 inhibitors: Unexpected binding activity of cyclic thioamides” (Bioorg Med Chem Lett, 2020).

biological target: T1, Beta-secretase 1 (Homo sapiens, UniProt P56817); experiment: Inhibition of human BACE1 using HiLyte Fluo488/QXL-520 peptide substrate at 10 uM by fluorescence assay
T1 sequence (P56817 whole entry): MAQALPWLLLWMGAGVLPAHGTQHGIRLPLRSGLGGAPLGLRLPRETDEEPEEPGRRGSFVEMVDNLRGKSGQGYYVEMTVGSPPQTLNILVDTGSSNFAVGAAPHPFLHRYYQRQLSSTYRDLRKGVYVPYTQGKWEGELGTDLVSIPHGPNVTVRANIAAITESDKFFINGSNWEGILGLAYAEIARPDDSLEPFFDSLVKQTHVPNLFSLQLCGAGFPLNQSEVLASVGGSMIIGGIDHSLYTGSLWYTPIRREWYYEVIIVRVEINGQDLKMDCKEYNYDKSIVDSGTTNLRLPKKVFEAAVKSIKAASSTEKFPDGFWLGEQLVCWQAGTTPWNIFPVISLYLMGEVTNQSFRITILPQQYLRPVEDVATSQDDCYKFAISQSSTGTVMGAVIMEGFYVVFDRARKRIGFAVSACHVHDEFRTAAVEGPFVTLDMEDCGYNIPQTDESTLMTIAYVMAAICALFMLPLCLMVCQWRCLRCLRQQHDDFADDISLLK

Going from `COC(=O)[C@H]1OCC(=S)N[C@@H]1c1ccc(C)cc1` to `COC(=O)[C@H]1OCC(=S)N[C@@H]1c1ccc(OC)cc1`, the inhibition rises from 19% to 40%.

First: COc1ccc([C@H]2NC(=N)CO[C@@H]2C(N)=O)cc1OC
Second: COc1ccc([C@H]2NC(=N)CO[C@@H]2C(N)=O)cc1Br
The inhibition of the first is lower: 10% for the first, 17% for the second.

Going from `COC(=O)[C@H]1OCC(=S)N[C@@H]1c1ccc(OC)c(OC)c1` to `COC(=O)[C@H]1OCC(=S)N[C@@H]1c1ccc(OC)c(Br)c1`, the inhibition rises from 24% to 26%.

Going from `COc1ccc([C@H]2NC(=N)CO[C@@H]2C(N)=O)cc1` to `Cc1ccc([C@H]2NC(=N)CO[C@@H]2C(N)=O)cc1`, the inhibition falls from 27% to 14%.

biological target: T1, Beta-secretase 1; experiment: Inhibition of human BACE1 using HiLyte Fluo488/QXL-520 peptide substrate by fluorescence assay

For `COC(=O)[C@H]1OCC(=S)N[C@@H]1c1ccc(OC)cc1`, the IC50 was 5.7 µM.
